pIC50: −log10 of the molar value.
Key:
OXA-1 β-lactamase = molecular target: T1, OXA-1 β-lactamase (Escherichia coli, UniProt P13661); experiment: β-lactamase enzyme inhibition, OXA-1; type: biochemical; conditions: Nitrocefin 100 μM, 486 nm; 15 min at 37° C. preincubation; read-out: IC50 OXA-1 (Class D)
T1 construct: made in house; host or cells: E. coli BL21(DE3)
How it was run: (§1)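 IC50 was the inhibitor concentration halving the initial hydrolysis rate versus no-inhibitor wells, following a 15 min 37° C. enzyme–inhibitor preincubation. Substrates: imipenem read at 300 nm for KPC-2, cefotaxime at 260 nm for SHV-5, and nitrocefin (100 μM final) at 486 nm for OXA-1 and p99 AmpC. Enzymes were recombinant untagged proteins from E. coli BL21(DE3).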

[1] = test system: K. pneumoniae A-1797 expressing KPC-2 and VIM-4; experiment: broth microdilution MIC, K. pneumoniae KPC-2 and VIM-4; type: cell-based; conditions: Fixed Mero (meropenem) 4 μg/mL
How it was run: (§2)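 Potentiation MICs were run by CLSI broth microdilution in cation-adjusted Mueller Hinton broth, with test compound serially diluted 2-fold from 32 to 0.25 μg/mL against a fixed 4 μg/mL beta-lactam overlay. Plates were incubated 16-20 hours at 37° C and the MIC was read visually.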

[2] = test system: K. pneumoniae 156319 expressing KPC-3; experiment: broth microdilution MIC, K. pneumoniae KPC-3; type: cell-based; conditions: Fixed Mero (meropenem) 4 μg/mL
How it was run: as §2

[3] = test system: E. cloacae 144200 expressing Class C P99 AmpC; experiment: broth microdilution MIC, E. cloacae P99; type: cell-based; conditions: Fixed CAZ (ceftazidime) 4 μg/mL
How it was run: as §2

SHV-5 β-lactamase = molecular target: T2, SHV-5 β-lactamase (Klebsiella pneumoniae, UniProt P0A3M1); experiment: β-lactamase enzyme inhibition, SHV-5; type: biochemical
T2 construct: made in house; host or cells: E. coli BL21(DE3)
How it was run: as §1

[4] = test system: S. aureus MSSA-7 producing penicillinase PC-1; experiment: broth microdilution MIC, S. aureus PC-1; type: cell-based; conditions: Fixed Pip (piperacillin) 4 μg/mL
How it was run: as §2

[5] = test system: P. aeruginosa Ps296 expressing VIM-2; experiment: broth microdilution MIC, P. aeruginosa VIM-2; type: cell-based; conditions: Fixed Mero (meropenem) 4 μg/mL
How it was run: as §2

KPC-2 β-lactamase = molecular target: T3, KPC-2 β-lactamase (Klebsiella pneumoniae, UniProt Q9F663); experiment: β-lactamase enzyme inhibition, KPC-2; type: biochemical; conditions: imipenem substrate, 300 nm; 15 min at 37° C. preincubation; read-out: IC50 KPC-2 (Class A)
T3 construct: made in house; host or cells: E. coli BL21(DE3)
How it was run: as §1

p99 AmpC β-lactamase = molecular target: T4, p99 AmpC β-lactamase (Enterobacter cloacae, UniProt P05364); experiment: β-lactamase enzyme inhibition, p99 AmpC; type: biochemical
T4 construct: made in house; host or cells: E. coli BL21(DE3)
How it was run: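 Inhibitor and enzyme were incubated 15 min at 37°C first. The enzyme was recombinant p99 AmpC, untagged, from E. coli BL21(DE3), purified by ion-exchange and size-exclusion chromatography.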

[6] = molecular target: T5, VIM-2 metallo β-lactamase (Pseudomonas aeruginosa, UniProt Q9K2N0); experiment: β-lactamase enzyme inhibition, VIM-2; type: biochemical; conditions: Nitrocefin 100 μM, 486 nm; 15 min at 37° C. preincubation; read-out: IC50 VIM-2 (Class B)
T5 construct: made in house; host or cells: E. coli BL21(DE3)
How it was run: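 Inhibitor and enzyme sat together 15 min at 37° C before 100 μM nitrocefin (final) was added and 486 nm absorbance read for 10 min. IC50 is the concentration halving initial hydrolysis rate relative to uninhibited wells. Protein came from Q sepharose anion exchange at pH 7.5, repeated to >90% purity.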

[7] = test system: E. coli ESBL4 expressing CTX-M-15; experiment: broth microdilution MIC, E. coli CTX-M-15; type: cell-based; conditions: Fixed CAZ (ceftazidime) 4 μg/mL
How it was run: as §2

T1 sequence (P13661 26-276): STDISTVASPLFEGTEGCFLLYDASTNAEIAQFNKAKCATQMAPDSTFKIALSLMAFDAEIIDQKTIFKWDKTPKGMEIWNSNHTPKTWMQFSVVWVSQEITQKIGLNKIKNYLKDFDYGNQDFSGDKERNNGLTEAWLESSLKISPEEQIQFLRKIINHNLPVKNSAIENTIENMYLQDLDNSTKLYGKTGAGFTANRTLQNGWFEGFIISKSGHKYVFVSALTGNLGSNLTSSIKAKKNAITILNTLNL
T3 sequence (Q9F663 25-293, looked up): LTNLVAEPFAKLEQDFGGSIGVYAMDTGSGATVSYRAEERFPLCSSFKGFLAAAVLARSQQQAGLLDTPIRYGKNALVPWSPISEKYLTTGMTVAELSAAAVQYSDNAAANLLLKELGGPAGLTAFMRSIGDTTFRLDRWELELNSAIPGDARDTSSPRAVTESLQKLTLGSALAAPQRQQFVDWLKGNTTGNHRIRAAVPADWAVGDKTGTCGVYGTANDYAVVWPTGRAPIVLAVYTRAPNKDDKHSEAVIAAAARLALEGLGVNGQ
T4 sequence (P05364 21-381): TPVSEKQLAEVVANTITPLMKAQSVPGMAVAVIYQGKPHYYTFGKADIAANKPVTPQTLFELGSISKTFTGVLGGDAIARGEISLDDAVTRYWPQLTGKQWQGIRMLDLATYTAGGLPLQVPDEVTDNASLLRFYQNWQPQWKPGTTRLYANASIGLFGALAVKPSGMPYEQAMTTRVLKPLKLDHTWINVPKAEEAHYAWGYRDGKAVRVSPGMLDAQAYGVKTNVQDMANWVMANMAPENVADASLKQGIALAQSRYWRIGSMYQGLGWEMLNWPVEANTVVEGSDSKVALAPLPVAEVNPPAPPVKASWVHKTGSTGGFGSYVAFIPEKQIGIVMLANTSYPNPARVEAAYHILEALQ
T2 sequence (P0A3M1 22-286): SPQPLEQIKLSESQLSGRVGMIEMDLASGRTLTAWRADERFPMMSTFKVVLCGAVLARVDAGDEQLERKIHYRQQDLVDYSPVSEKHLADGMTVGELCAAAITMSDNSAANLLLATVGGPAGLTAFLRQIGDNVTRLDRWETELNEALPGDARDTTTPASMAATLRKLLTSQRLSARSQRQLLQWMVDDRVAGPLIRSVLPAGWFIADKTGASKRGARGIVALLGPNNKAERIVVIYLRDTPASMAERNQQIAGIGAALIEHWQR

| Compound | pIC50 (OXA-1 β-lactamase) | MIC of exemplary compounds in presence of fixed β-lactams, K.P. A-1797 KPC-2 VIM-4 [1] | MIC of exemplary compounds in presence of fixed β-lactams, K.P. 156319 KPC-3 [2] | MIC of exemplary compounds in presence of fixed β-lactams, E. cl. 144200 p99 AmpC [3] | pIC50 (SHV-5 β-lactamase) | MIC of exemplary compounds in presence of fixed β-lactams, S. aureus MSSA-7 PC-1 [4] | MIC of exemplary compounds in presence of fixed β-lactams, P. aerug. Ps296 VIM-2 [5] | pIC50 (KPC-2 β-lactamase) | pIC50 (p99 AmpC β-lactamase) | pIC50 [6] | MIC of exemplary compounds in presence of fixed β-lactams, E. coli ESBL4 CTX-M-15 [7] |
| --- | --- | --- | --- | --- | --- | --- | --- | --- | --- | --- | --- |
| O=C(Cc1ccc2c(c1)CNC2)N[C@H]1Cc2cccc(C(=O)O)c2OB1O [Example 64, (R)-3-(2-2,3-Dihydro-1H-isoindol-5-yl-acetylamino)-2-hydroxy-3,4-dihydro-2H-benzo[e][1,2]oxaborinine-8-carboxylic acid] | > 7.00 | B (B represents the MIC in the presence of between 8 and 32 g/mL of a β-lactamase inhibitor) | C (C represents the MIC in the presence of ≤4 g/mL of a β-lactamase inhibitor) | C (C represents the MIC in the presence of ≤4 g/mL of a β-lactamase inhibitor) | > 7.00 | C (C represents the MIC in the presence of ≤4 g/mL of a β-lactamase inhibitor) | C (C represents the MIC in the presence of ≤4 g/mL of a β-lactamase inhibitor) | > 7.00 | > 7.00 | 6.00 to 7.00 | C (C represents the MIC in the presence of ≤4 g/mL of a β-lactamase inhibitor) |
| O=C(CCn1ccnc1)N[C@H]1Cc2cccc(C(=O)O)c2OB1O [Example 29, (R)-2-Hydroxy-3-(3-imidazol-1-yl-propionylamino)-3,4-dihydro-2H-benzo[e][1,2]oxaborinine-8-carboxylic acid] | > 7.00 | A (A represents an MIC of the fixed β-lactam antibiotic in the presence of >32 g/mL of a β-lactamase inhibitor) | C (C represents the MIC in the presence of ≤4 g/mL of a β-lactamase inhibitor) | C (C represents the MIC in the presence of ≤4 g/mL of a β-lactamase inhibitor) | > 7.00 | C (C represents the MIC in the presence of ≤4 g/mL of a β-lactamase inhibitor) | C (C represents the MIC in the presence of ≤4 g/mL of a β-lactamase inhibitor) | > 7.00 | > 7.00 | 5.00 to 6.00 | C (C represents the MIC in the presence of ≤4 g/mL of a β-lactamase inhibitor) |
| CC(C)CC(=O)N[C@H]1Cc2cccc(C(=O)O)c2OB1O [Example 6, (R)-2-Hydroxy-3-(3-methyl-butyrylamino)-3,4-dihydro-2H-benzo[e][1,2]oxaborinine-8-carboxylic acid] | > 7.00 | A (A represents an MIC of the fixed β-lactam antibiotic in the presence of >32 g/mL of a β-lactamase inhibitor) | C (C represents the MIC in the presence of ≤4 g/mL of a β-lactamase inhibitor) | C (C represents the MIC in the presence of ≤4 g/mL of a β-lactamase inhibitor) | > 7.00 | C (C represents the MIC in the presence of ≤4 g/mL of a β-lactamase inhibitor) | B (B represents the MIC in the presence of between 8 and 32 g/mL of a β-lactamase inhibitor) | > 7.00 | > 7.00 | 5.00 to 6.00 | C (C represents the MIC in the presence of ≤4 g/mL of a β-lactamase inhibitor) |
| CC(=O)N[C@H]1Cc2cccc(C(=O)O)c2OB1O [Example 61, (R)-3-Acetylamino-2-hydroxy-3,4-dihydro-2H-benzo[e][1,2]oxaborinine-8-carboxylic acid] | 6.00 to 7.00 | B (B represents the MIC in the presence of between 8 and 32 g/mL of a β-lactamase inhibitor) | C (C represents the MIC in the presence of ≤4 g/mL of a β-lactamase inhibitor) | C (C represents the MIC in the presence of ≤4 g/mL of a β-lactamase inhibitor) | 6.00 to 7.00 | C (C represents the MIC in the presence of ≤4 g/mL of a β-lactamase inhibitor) | C (C represents the MIC in the presence of ≤4 g/mL of a β-lactamase inhibitor) | > 7.00 | > 7.00 | 5.00 to 6.00 | C (C represents the MIC in the presence of ≤4 g/mL of a β-lactamase inhibitor) |
| O=C(CCn1cccn1)N[C@H]1Cc2cccc(C(=O)O)c2OB1O [Example 28, (R)-2-Hydroxy-3-(3-pyrazol-1-yl-propionylamino)-3,4-dihydro-2H-benzo[e][1,2]oxaborinine-8-carboxylicacid] | > 7.00 | B (B represents the MIC in the presence of between 8 and 32 g/mL of a β-lactamase inhibitor) | C (C represents the MIC in the presence of ≤4 g/mL of a β-lactamase inhibitor) | C (C represents the MIC in the presence of ≤4 g/mL of a β-lactamase inhibitor) | > 7.00 | C (C represents the MIC in the presence of ≤4 g/mL of a β-lactamase inhibitor) | B (B represents the MIC in the presence of between 8 and 32 g/mL of a β-lactamase inhibitor) | > 7.00 | > 7.00 | 5.00 to 6.00 | C (C represents the MIC in the presence of ≤4 g/mL of a β-lactamase inhibitor) |
| CON=C(C)CCC(=O)N[C@H]1Cc2cccc(C(=O)O)c2OB1O [Example 18, (R)-2-Hydroxy-3-(4-methoxyimino-pentanoylamino)-3,4-dihydro-2H-benzo[e][1,2]oxaborinine-8-carboxylic acid] | > 7.00 | A (A represents an MIC of the fixed β-lactam antibiotic in the presence of >32 g/mL of a β-lactamase inhibitor) | C (C represents the MIC in the presence of ≤4 g/mL of a β-lactamase inhibitor) | C (C represents the MIC in the presence of ≤4 g/mL of a β-lactamase inhibitor) | > 7.00 | C (C represents the MIC in the presence of ≤4 g/mL of a β-lactamase inhibitor) | B (B represents the MIC in the presence of between 8 and 32 g/mL of a β-lactamase inhibitor) | > 7.00 | > 7.00 | 5.00 to 6.00 | C (C represents the MIC in the presence of ≤4 g/mL of a β-lactamase inhibitor) |

Source: patent US11008346B2, “Beta-lactamase inhibitors” (priority 2014, dated 2021)
